Data taken from patent US20120316105A1, “Polymyxin Derivates Useful As Antibacterial Agents” (priority 2011, published 2012).
Bridge positions count the residues as written; N and C are the ends. Square brackets hold non-standard residues; d marks the D form. Peptide text beside a SMILES is read from it. * marks the point of attachment. Benzoyl(3-Ph) = O=C(c1cccc(-c2ccccc2)c1)*; X21 = N#Cc1cccc(-c2cc(C(=O)*)ccn2)c1; X29 = COc1cc(C(=O)*)cc(-c2ccccc2)c1; X15 = O=C(c1cccc(-c2cccc(F)c2)c1)*; X39 = COc1ccc(C(=O)*)cc1-c1ccccc1; Dab = NCC[C@H](N)C(=O)O; Dap = NC[C@H](N)C(=O)O

Experiments:
[1] = test system: PA-1646, polymyxin-resistant clinical isolate of Pseudomonas aeruginosa; format: cell-based; conditions: PA-1646, polymyxin-resistant clinical isolate of
Protocol: (§1) Minimum bactericidal concentration (MBC, mg/L), minimum inhibitory concentration (MIC, mg/L), and human renal proximal tubule epithelial cell line cytotoxicity concentration 50% (hRPTEC, TC50, micromolar) for compounds of Formula I are listed in Table 2. The compounds of Formula I were tested as the corresponding trifluoroacetate salt except for Example 1 which was tested as the sulfate salt. For Table 2 below: PMB=polymyxin B as the sulfate salt (Bedford Laboratories, pharmaceutical grade); PMB1=polymyxin B1 as the trifluoroacetate salt; Nona=polymyxin B nonapeptide as the trifluoroacetate salt. PMB1 and Nona were prepared using the solid phase methodology described in the experimental section herein.
(§2) The in vitro antibacterial activity of compounds of Formula I was evaluated by MIC testing according to Clinical and Laboratory Standards Institute (CLSI). See: Clinical and Laboratory Standards Institute. Methods for Dilution Antimicrobial Susceptibility Tests for Bacteria that Grow Aerobically; Approved Standard-Eighth Edition. CLSI document M7-A8 [ISBN 1-56238-689-1]. Clinical and Laboratory Standards Institute, 940 West Valley Road, Suite 1400, Wayne, Pa. 19087-1898 USA, 2006; also Clinical and Laboratory Standards Institute. Performance Standards for Antimicrobial Susceptibility Testing; Twentieth Informational Supplement. CLSI document M100-S20 [ISBN 1-56238-716-2]. Clinical and Laboratory Standards Institute. Methods for Determining Bactericidal Activity of Antimicrobial Agents; Approved Guideline. CLSI document M26-A (ISBN 1-56238-384-1). CLSI, 940 West Valley Road, Suite 1400, Wayne, Pa. 19087-1898 USA, 1999.
PA-1646 is a polymyxin-resistant clinical isolate of Pseudomonas aeruginosa obtained from JMI labs (www.jmilabs.com);

[2] = test system: AB-1649, polymyxin-resistant clinical isolate of Acinetobacter baumannii; format: cell-based; conditions: AB-1649, polymyxin-resistant clinical isolate of
Protocol: as §1, §2
(§3) The MIC determination is a standard laboratory method for evaluating the antibacterial activity of a compound. The MIC represents the lowest drug concentration that inhibits visible growth of bacteria following overnight incubation. […] Typically, the drug concentration range is broken down into 2-fold increments (e.g. 0.06 mg/L, 0.12 mg/L, 0.25 mg/L, 0.50 mg/L, 1.0 mg/L, etc.) and the various drug concentrations are all individually incubated overnight with approximately the same number of bacteria. The MIC is then determined by visually inspecting the drug effect at each concentration, and identifying the lowest drug concentration that has inhibited bacterial growth as compared to the drug free control. Typically, bacteria continue to grow at drug concentrations lower than the MIC and don't grow at concentrations at and above the MIC.
(§4) The MIC values described in Table 2 below were derived from assays wherein each test compound was evaluated in duplicate. In cases where the duplicate values varied by 0-2-fold, the lower of the two values was reported below. Generally speaking, if the duplicate values varied by more than 2-fold, the assay was considered non-valid and was repeated until the variation between duplicate runs was ≦2-fold. In line with the CLSI guidelines referred to above, both control organisms and reference compounds were utilized in each MIC assay to provide proper quality control. MIC values generated with these control organisms and reference compounds were required to fall within a defined range for the assay to be considered valid and be included herein. Those skilled in the art will recognize that MIC values can and do vary from experiment to experiment. Generally speaking, it should be recognized that MIC values often vary +/−2-fold from experiment to experiment. While a single MIC is reported for each compound and each microorganism, the reader should not conclude that each compound was only tested once. Several of the compounds were subjected to multiple tests. The data reported in Table 2 is reflective of the compounds relative activity and different MICs may have been generated on these occasions in line with the guidelines described above.
(§5) The following bacterial strains were used in these MIC determinations: […]

[3] = test system: AB-3167, clinical isolate of Acinetobacter baumannii; format: cell-based; conditions: AB-3167, clinical isolate of
Protocol: as §1, §2, §3, §4, §5

[4] = test system: PA-1646, polymyxin-resistant clinical isolate of Pseudomonas aeruginosa; format: cell-based; conditions: PA-1646, polymyxin-resistant clinical isolate of; remark: listed apart in the source
Protocol: as §1, §2, §3, §4, §5

[5] = test system: Pseudomonas aeruginosa strain PA01; format: cell-based; conditions: strain
Protocol: as §1, §2, §3, §4, §5

[6] = test system: AB-1649, polymyxin-resistant clinical isolate of Acinetobacter baumannii; format: cell-based; conditions: AB-1649, polymyxin-resistant clinical isolate of; remark: listed apart in the source
Protocol: as §1, §2
AB-1649 is a polymyxin-resistant clinical isolate of Acinetobacter baumannii obtained from JMI labs (www.jmilabs.com);

[7] = test system: EC-1, mouse virulent strain of Escherichia coli; format: cell-based; conditions: E. coli EC-1; overnight incubation, lower of duplicate values; trifluoroacetate salt (Example 1 and PMB sulfate)
Protocol: as §1, §2, §3, §4
The following bacterial strains were used in these MIC determinations:
EC-1 is a mouse virulent strain of Escherichia coli.

[8] = Cytotoxicity assay (LDH release), hRPTEC; format: cell-based, human; conditions: human
Protocol: as §1
Human Renal Proximal Tubule Epithelial cells (hRPTEC) were obtained from Lonza (Walkersville, Md., USA) and cultured in REGM (Renal Epithelial Cell Basal Medium supplemented with human epithelial growth factor, hydrocortisone, epinephrine, insulin, triiodothyronine, transferrin, gentamycin/amphotericin-B, and fetal bovine serum). The hRPTEC cells were seeded into 96-well plates and incubated at 37° C. in 5% CO2. Following a growth period of 72 hours, cells were treated with compounds at 100, 67, 44, 30, 20 and 13 micromolar for 24 hours at 37° C. in 5% CO2. The cell supernatant was then harvested for determination of LDH (lactate dehydrogenase) production. The Cytotoxicity Detection Kit from Roche was used for the measurement of LDH activity released from damaged cells. The Toxic Concentration 50% (TC50, micromolar) values were determined for each compound and compared to the control compounds (polymyxin B was used as a positive control and polymyxin B nonapepetide was used as negative control).

Compound	PA-1646 MBC [1] [µg/mL]	AB-1649 MIC [2] [µg/mL]	AB-3167 MIC [3] [µg/mL]	PA-1646 MIC [4] [µg/mL]	PA01 MIC [5] [µg/mL]	AB-1649 MBC [6] [µg/mL]	EC-1 MIC [7] [µg/mL]	CC50 at 24 h [8] [µM]
CC(C)C[C@@H]1NC(=O)[C@@H](Cc2ccccc2)NC(=O)[C@H](CCN)NC(=O)[C@@H](NC(=O)[C@H](CN)NC(=O)[C@@H](NC(=O)[C@H](CCN)NC(=O)c2ccnc(-c3cccc(C#N)c3)c2)[C@@H](C)O)CCNC(=O)[C@H]([C@@H](C)O)NC(=O)[C@H](CCN)NC(=O)[C@H](CCN)NC1=O [Example 15] (X21-[Dab]T[Dap][Dab][Dab][dF]L[Dab][Dab]T; lactam 4-C)	16	2	0.25	4	0.5	2	0.125	43
COc1ccc(C(=O)N[C@@H](CCN)C(=O)N[C@H](C(=O)N[C@@H](CN)C(=O)N[C@H]2CCNC(=O)[C@H]([C@@H](C)O)NC(=O)[C@H](CCN)NC(=O)[C@H](CCN)NC(=O)[C@H](CC(C)C)NC(=O)[C@@H](Cc3ccccc3)NC(=O)[C@H](CCN)NC2=O)[C@@H](C)O)cc1-c1ccccc1 [Example 16] (X39-[Dab]T[Dap][Dab][Dab][dF]L[Dab][Dab]T; lactam 4-C)	2	2	0.5	1	0.5	2	0.25	27
COc1cc(C(=O)N[C@@H](CCN)C(=O)N[C@H](C(=O)N[C@@H](CN)C(=O)N[C@H]2CCNC(=O)[C@H]([C@@H](C)O)NC(=O)[C@H](CCN)NC(=O)[C@H](CCN)NC(=O)[C@H](CC(C)C)NC(=O)[C@@H](Cc3ccccc3)NC(=O)[C@H](CCN)NC2=O)[C@@H](C)O)cc(-c2ccccc2)c1 [Example 17] (X29-[Dab]T[Dap][Dab][Dab][dF]L[Dab][Dab]T; lactam 4-C)	4	4	0.25	2	0.5	8	0.25	26
CC(C)C[C@@H]1NC(=O)[C@@H](Cc2ccccc2)NC(=O)[C@H](CCN)NC(=O)[C@@H](NC(=O)[C@H](CN)NC(=O)[C@@H](NC(=O)[C@H](CCN)NC(=O)c2cccc(-c3cccc(F)c3)c2)[C@@H](C)O)CCNC(=O)[C@H]([C@@H](C)O)NC(=O)[C@H](CCN)NC(=O)[C@H](CCN)NC1=O [Example 18] (X15-[Dab]T[Dap][Dab][Dab][dF]L[Dab][Dab]T; lactam 4-C)	1	2	0.5	1	1	2	0.25	22
CC(C)C[C@@H]1NC(=O)[C@@H](Cc2ccccc2)NC(=O)[C@H](CCN)NC(=O)[C@@H](NC(=O)[C@H](CN)NC(=O)[C@@H](NC(=O)[C@H](CCN)NC(=O)c2cccc(-c3ccccc3)c2)[C@@H](C)O)CCNC(=O)[C@H]([C@@H](C)O)NC(=O)[C@H](CCN)NC(=O)[C@H](CCN)NC1=O [Example 19] ({Benzoyl(3-Ph)}-[Dab]T[Dap][Dab][Dab][dF]L[Dab][Dab]T; lactam 4-C)	2	2	0.25	1	0.5	2	0.25	21
